In patent US6340689B1 (priority 1999, dated 2002):
In brackets after ≈: the same amount, converted by molar mass.

Tests used:
[1] = tested on: isolates of Legionella pneumophila and other Legionella spp.; assay: microbe, parasite or virus in culture; assay type: cell-based
[2] = tested on: L. pneumophila serogroup 2; assay: microbe, parasite or virus in culture; assay type: cell-based; conditions: Legionella pneumophila; for MIC: 48 h, read-out: MIC Range
[3] = tested on: L. dumoffii and L. longbeachae; assay: organism not typed; assay type: cell-based
[4] = tested on: L. pneumophila serogroups 1-9; assay type: cell-based, Legionella pneumophila
[5] = tested on: L. pneumophila serogroup 3; assay: microbe, parasite or virus in culture; assay type: cell-based; conditions: Legionella pneumophila; for MIC: 48 h, read-out: MIC Range
L. dumoffii = assay: organism not typed; assay type: cell-based; conditions: for MIC: 48 h, read-out: MIC Range
L. longbeacheae = assay: organism not typed; assay type: cell-based; conditions: for MIC: 48 h, read-out: MIC Range
[6] = tested on: L. pneumophila serogroup 6; assay: microbe, parasite or virus in culture; assay type: cell-based; conditions: Legionella pneumophila; for MIC: 48 h, read-out: MIC Range
[7] = tested on: L. pneumophila serogroup 4; assay: microbe, parasite or virus in culture; assay type: cell-based; conditions: Legionella pneumophila; for MIC: 48 h, read-out: MIC Range
[8] = tested on: L. pneumophila serogroup 7; assay: microbe, parasite or virus in culture; assay type: cell-based; conditions: Legionella pneumophila; for MIC: 48 h, read-out: MIC Range
L. micadadei = assay: organism not typed; assay type: cell-based, L. micdadei; conditions: for MIC: 48 h, read-out: MIC Range
[9] = tested on: Erythromycin-susceptible L. pneumophila; assay type: cell-based, Legionella pneumophila; conditions: for Mean PAE: Erythromycin-susceptible L. pneumophila (n = 15), 4 × MIC, mean ± SD
[10] = tested on: L. pneumophila serogroup 5; assay: microbe, parasite or virus in culture; assay type: cell-based; conditions: Legionella pneumophila; for MIC: 48 h, read-out: MIC Range
[11] = tested on: Erythromycin-susceptible Legionella spp. other than L. pneumophila; assay type: cell-based; conditions: for Mean PAE: Erythromycin-susceptible Legionella spp. (n = 13), 4 × MIC, mean ± SD
[12] = tested on: L. pneumophila serogroup 1; assay: microbe, parasite or virus in culture; assay type: cell-based, Legionella pneumophila; conditions: for MIC: 48 h, read-out: MIC Range
Other Legionella spp. = assay: microbe, parasite or virus in culture; assay type: cell-based; conditions: for MIC: 48 h, read-out: MIC Range
[13] = tested on: L. pneumophila serogroup 8, 9; assay: microbe, parasite or virus in culture; assay type: cell-based; conditions: Legionella pneumophila; for MIC: 48 h, read-out: MIC Range

Compound `CO/N=C1\CN(c2nc3c(cc2F)c(=O)c(C(=O)O)cn3C2CC2)CC1CN` (racemic) [Gemifloxacin, (R,S)-7-(3-aminomethyl-4-methoxyiminopyrrolidin-1-yl)-1-cyclopropyl-6-fluoro-4-oxo-1,4-dihydro-1,8-naphthyridine-3-carboxylic acid] has an MIC90 [1] of 0.016 µg/mL (≈ 0.0411 µM), an MIC50 [2] of 0.008 µg/mL (≈ 0.0205 µM) and an MIC90 [2] of 0.016 µg/mL (≈ 0.0411 µM). For the same compound, the MIC [2] was 0.008 to 0.016 µg/mL (≈ 0.0205 to 0.0411 µM), the MIC90 [3] was 0.06 µg/mL (≈ 0.154 µM) and the MIC range ([4]; L. pneumophila serogroups 1-9, text) was 0.008 to 0.06 µg/mL. The “fold more active than erythromycin” value ([4]; against L. pneumophila strains tested) was 5-6 fold, the MIC50 [5] was 0.016 µg/mL (≈ 0.0411 µM) and the MIC90 [5] was 0.016 µg/mL (≈ 0.0411 µM). It also gave an MIC [5] of 0.008 to 0.016 µg/mL (≈ 0.0205 to 0.0411 µM), an MIC50 (L. dumoffii) of 0.06 µg/mL (≈ 0.154 µM) and an MIC90 (L. dumoffii) of 0.06 µg/mL (≈ 0.154 µM). It also gave an MIC (L. dumoffii) of 0.06 µg/mL (≈ 0.154 µM), an MIC50 (L. longbeacheae) of 0.06 µg/mL (≈ 0.154 µM) and an MIC90 (L. longbeacheae) of 0.06 µg/mL (≈ 0.154 µM). The MIC (L. longbeacheae) was 0.016 to 0.06 µg/mL (≈ 0.0411 to 0.154 µM), the MIC50 [6] was 0.016 µg/mL (≈ 0.0411 µM) and the MIC90 [6] was 0.03 µg/mL (≈ 0.077 µM). It also gave an MIC [6] of 0.008 to 0.03 µg/mL (≈ 0.0205 to 0.077 µM), an MIC50 [7] of 0.016 µg/mL (≈ 0.0411 µM) and an MIC90 [7] of 0.03 µg/mL (≈ 0.077 µM). For the same compound, the MIC [7] was 0.008 to 0.03 µg/mL (≈ 0.0205 to 0.077 µM), the MIC50 [8] was 0.008 µg/mL (≈ 0.0205 µM) and the MIC90 [8] was 0.016 µg/mL (≈ 0.0411 µM). It also gave an MIC [8] of 0.008 to 0.016 µg/mL (≈ 0.0205 to 0.0411 µM), an MIC50 (L. micadadei) of 0.016 µg/mL (≈ 0.0411 µM) and an MIC90 (L. micadadei) of 0.03 µg/mL (≈ 0.077 µM). The “MICs fold more active than erythromycin” value (L. micadadei) was 5 fold, the MIC (L. micadadei) was 0.008 to 0.03 µg/mL (≈ 0.0205 to 0.077 µM) and the “Mean PAE” value [9] was 3.49 ± 3 h. The “mean PAE longer than that of trovafloxacin, levofloxacin and clarithromycin” value ([9]; erythromycin-susceptible L. pneumophila) was at least 1 h, the MIC50 [10] was 0.03 µg/mL (≈ 0.077 µM) and the MIC90 [10] was 0.03 µg/mL (≈ 0.077 µM). For the same compound, the MIC [10] was 0.03 to 0.06 µg/mL (≈ 0.077 to 0.154 µM), the “Mean PAE” value [11] was 2.27 ± 2 h and the “PAE (mean PAE)” value ([11]; erythromycin-susceptible Legionella spp. other than L. pneumophila, four times the MIC) was 2.27 h. For the same compound, the “mean PAE longer than that of trovafloxacin, moxifloxacin and clarithromycin” value ([11]; erythromycin-susceptible Legionella spp. other than pneumophila) was at least 1 h, the “MIC 90%” value ([12]; L. pneumophila serogroup 1 (n = 85)) was “≦0.004 mg/L” and the “MIC 90%” value ([12]; L. pneumophila serogroup 1 (n = 85), listed as gemifloxacin) was 0.016 µg/mL (≈ 0.0411 µM). It also gave an MIC50 ([12]; Legionella pneumophila) of 0.016 µg/mL (≈ 0.0411 µM), an MIC ([12]; Legionella pneumophila) of 0.008 to 0.06 µg/mL (≈ 0.0205 to 0.154 µM) and an MIC50 (Other Legionella spp.) of 0.03 µg/mL (≈ 0.077 µM). It also gave an MIC90 (Other Legionella spp.) of 0.06 µg/mL (≈ 0.154 µM), an MIC (Other Legionella spp.) of 0.016 to 0.06 µg/mL (≈ 0.0411 to 0.154 µM) and an MIC50 [13] of 0.016 µg/mL (≈ 0.0411 µM). The MIC90 [13] was 0.016 µg/mL (≈ 0.0411 µM) and the MIC [13] was 0.016 µg/mL (≈ 0.0411 µM).

Work on `CC1COc2c(N3CCN(C)CC3)c(F)cc3c(=O)c(C(=O)O)cn1c23` (stereo not drawn) [Ofloxacin] yielded an MIC90 [1] of 0.03 µg/mL (≈ 0.083 µM), an MIC50 [2] of 0.016 µg/mL (≈ 0.0443 µM) and an MIC90 [2] of 0.03 µg/mL (≈ 0.083 µM). The MIC [2] was 0.008 to 0.03 µg/mL (≈ 0.0221 to 0.083 µM), the MIC50 [5] was 0.016 µg/mL (≈ 0.0443 µM) and the MIC90 [5] was 0.03 µg/mL (≈ 0.083 µM). The MIC [5] was 0.016 to 0.03 µg/mL (≈ 0.0443 to 0.083 µM), the MIC50 (L. dumoffii) was 0.03 µg/mL (≈ 0.083 µM) and the MIC90 (L. dumoffii) was 0.03 µg/mL (≈ 0.083 µM). The MIC (L. dumoffii) was 0.03 µg/mL (≈ 0.083 µM), the MIC50 (L. longbeacheae) was 0.03 µg/mL (≈ 0.083 µM) and the MIC90 (L. longbeacheae) was 0.03 µg/mL (≈ 0.083 µM). It also gave an MIC (L. longbeacheae) of 0.016 to 0.03 µg/mL (≈ 0.0443 to 0.083 µM), an MIC50 [6] of 0.03 µg/mL (≈ 0.083 µM) and an MIC90 [6] of 0.03 µg/mL (≈ 0.083 µM). It also gave an MIC [6] of 0.008 to 0.03 µg/mL (≈ 0.0221 to 0.083 µM), an MIC50 [7] of 0.03 µg/mL (≈ 0.083 µM) and an MIC90 [7] of 0.03 µg/mL (≈ 0.083 µM). The MIC [7] was 0.008 to 0.03 µg/mL (≈ 0.0221 to 0.083 µM), the MIC50 [8] was 0.03 µg/mL (≈ 0.083 µM) and the MIC90 [8] was 0.03 µg/mL (≈ 0.083 µM). For the same compound, the MIC [8] was 0.03 µg/mL (≈ 0.083 µM), the MIC50 (L. micadadei) was 0.03 µg/mL (≈ 0.083 µM) and the MIC90 (L. micadadei) was 0.03 µg/mL (≈ 0.083 µM). The “MICs fold more active than erythromycin” value (L. micadadei) was 5 fold, the MIC (L. micadadei) was 0.03 µg/mL (≈ 0.083 µM) and the “Mean PAE” value [9] was 3.53 ± 3 h. For the same compound, the MIC50 [10] was 0.016 µg/mL (≈ 0.0443 µM), the MIC90 [10] was 0.03 µg/mL (≈ 0.083 µM) and the MIC [10] was 0.008 to 0.03 µg/mL (≈ 0.0221 to 0.083 µM). For the same compound, the “Mean PAE” value [11] was 3.04 ± 2 h, the MIC50 ([12]; Legionella pneumophila) was 0.03 µg/mL (≈ 0.083 µM) and the MIC ([12]; Legionella pneumophila) was 0.008 to 0.03 µg/mL (≈ 0.0221 to 0.083 µM). The MIC90 ([12]; Legionella pneumophila, L. pneumophila serogroup 1 (n = 85)) was 0.03 µg/mL (≈ 0.083 µM), the MIC50 (Other Legionella spp.) was 0.016 µg/mL (≈ 0.0443 µM) and the MIC90 (Other Legionella spp.) was 0.06 µg/mL (≈ 0.166 µM). For the same compound, the MIC (Other Legionella spp.) was 0.004 to 0.06 µg/mL (≈ 0.0111 to 0.166 µM), the MIC50 [13] was 0.03 µg/mL (≈ 0.083 µM) and the MIC90 [13] was 0.03 µg/mL (≈ 0.083 µM). The MIC [13] was 0.03 µg/mL (≈ 0.083 µM).
